Data taken from patent US8946223B2, “Substituted hydroxamic acids and uses thereof” (Millennium Pharmaceuticals, Inc., priority 2010, dated 2015).

Biological target: T1, purified human HDAC6 (Homo sapiens, UniProt Q9UBN7)
T1 construct: purchased BPS Bioscience 5006
T1 sequence (Q9UBN7 1-1215): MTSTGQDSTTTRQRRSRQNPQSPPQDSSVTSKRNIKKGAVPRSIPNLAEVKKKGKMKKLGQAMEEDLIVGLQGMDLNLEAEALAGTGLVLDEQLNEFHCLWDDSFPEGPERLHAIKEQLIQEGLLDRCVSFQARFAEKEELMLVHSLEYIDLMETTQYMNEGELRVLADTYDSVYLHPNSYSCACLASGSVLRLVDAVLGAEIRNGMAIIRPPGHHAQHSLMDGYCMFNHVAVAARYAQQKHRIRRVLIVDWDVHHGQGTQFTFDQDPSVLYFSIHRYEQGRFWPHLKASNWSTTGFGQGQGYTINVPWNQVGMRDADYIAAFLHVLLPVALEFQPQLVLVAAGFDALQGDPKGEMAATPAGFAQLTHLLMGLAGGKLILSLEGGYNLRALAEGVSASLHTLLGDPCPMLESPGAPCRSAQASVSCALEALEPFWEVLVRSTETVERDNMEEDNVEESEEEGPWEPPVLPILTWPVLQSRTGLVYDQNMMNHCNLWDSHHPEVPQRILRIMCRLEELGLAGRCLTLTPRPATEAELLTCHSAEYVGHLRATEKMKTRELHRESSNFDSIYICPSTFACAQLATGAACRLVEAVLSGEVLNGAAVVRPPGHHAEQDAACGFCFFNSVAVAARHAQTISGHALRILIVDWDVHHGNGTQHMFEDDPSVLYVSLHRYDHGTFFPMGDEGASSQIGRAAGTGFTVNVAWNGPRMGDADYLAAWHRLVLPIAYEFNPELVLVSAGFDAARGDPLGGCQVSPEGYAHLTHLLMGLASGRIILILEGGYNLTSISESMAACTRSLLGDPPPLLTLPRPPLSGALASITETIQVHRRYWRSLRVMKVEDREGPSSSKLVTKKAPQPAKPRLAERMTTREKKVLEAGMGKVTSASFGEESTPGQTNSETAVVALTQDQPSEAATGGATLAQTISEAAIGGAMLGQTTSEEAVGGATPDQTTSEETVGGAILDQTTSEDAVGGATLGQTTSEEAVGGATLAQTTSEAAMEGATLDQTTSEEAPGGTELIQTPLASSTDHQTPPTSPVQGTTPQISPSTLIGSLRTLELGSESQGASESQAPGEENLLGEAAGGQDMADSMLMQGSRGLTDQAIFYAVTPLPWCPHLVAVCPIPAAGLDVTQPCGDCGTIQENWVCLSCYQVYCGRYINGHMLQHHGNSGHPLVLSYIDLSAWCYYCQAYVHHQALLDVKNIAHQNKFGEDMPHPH
Experiment: HDAC6 enzyme assay
Format: biochemical
Conditions: bin: less than 100 nM
Procedure: To measure the inhibition of HDAC6 activity, purified human HDAC6 (BPS Bioscience; Cat. No. 5006) is incubated with substrate Ac-Arg-Gly-Lys(Ac)-AMC peptide (Bachem Biosciences; Cat. No. I-1925) for 1 hour at 30° C. in the presence of test compounds or vehicle DMSO control. The reaction is stopped with the HDAC inhibitor trichostatin A (Sigma; Cat. No. T8552) and the amount of Arg-Gly-Lys-AMC generated is quantitated by digestion with trypsin (Sigma; Cat. No. T1426) and subsequent measurement of the amount of AMC released using a fluorescent plate reader (Pherastar; BMG Technologies) set at Ex 340 nm and Em 460 nm. Concentration response curves are generated by calculating the fluorescence increase in test compound-treated samples relative to DMSO-treated controls, and enzyme inhibition (IC50) values are determined from those curves.

| Compound | IC50 [nM] |
| --- | --- |
| O=C(NO)c1cn2c(n1)CN(C(=O)c1ccc(-c3ccccc3)cc1)CC2 [Compound I-2, 7-(biphenyl-4-ylcarbonyl)-N-hydroxy-5,6,7,8-tetrahydroimidazo[1,2-a]pyrazine-2-carboxamide] | < 100 |
| O=C(NO)c1cc2n(c1)CCN(C(=O)c1csc3ccccc13)C2 [Compound I-10, 2-(1-benzothien-3-ylcarbonyl)-N-hydroxy-1,2,3,4-tetrahydropyrrolo[1,2-a]pyrazine-7-carboxamide] | < 100 |
| O=C(NO)c1cc2n(n1)CCN(C(=O)c1ccc(OCc3ccccc3)cc1)C2 [Compound I-17, 5-[4-(benzyloxy)benzoyl]-N-hydroxy-4,5,6,7-tetrahydropyrazolo[1,5-a]pyrazine-2-carboxamide] | < 100 |
| Cn1c(C(=O)N2CCn3cc(C(=O)NO)cc3C2)cc2ccccc21 [Compound I-20, N-hydroxy-2-[(1-methyl-1H-indol-2-yl)carbonyl]-1,2,3,4-tetrahydropyrrolo[1,2-a]pyrazine-7-carboxamide] | < 100 |
| Cc1ccc2[nH]c(C(=O)N3CCn4cc(C(=O)NO)cc4C3)cc2c1 [Compound I-22, N-hydroxy-2-[(5-methyl-1H-indol-2-yl)carbonyl]-1,2,3,4-tetrahydropyrrolo[1,2-a]pyrazine-7-carboxamide] | < 100 |
| Cc1ccc2[nH]c(C(=O)N3CCn4cc(C(=O)NO)cc4C3)c(C)c2c1 [Compound I-28, 2-[(3,5-dimethyl-1H-indol-2-yl)carbonyl]-N-hydroxy-1,2,3,4-tetrahydropyrrolo[1,2-a]pyrazine-7-carboxamide] | < 100 |

More lines, now with the values ahead:

| IC50 [nM] | Compound |
| --- | --- |
| < 100 | Cn1c(C(=O)N2CCn3nc(C(=O)NO)cc3C2)cc2ccccc21 [Compound I-31, N-hydroxy-5-[(1-methyl-1H-indol-2-yl)carbonyl]-4,5,6,7-tetrahydropyrazolo[1,5-a]pyrazine-2-carboxamide] |
| < 100 | Cn1cccc1C(=O)N1CCn2cc(C(=O)NO)cc2C1 [Compound I-32, N-hydroxy-2-[(1-methyl-1H-pyrrol-2-yl)carbonyl]-1,2,3,4-tetrahydropyrrolo[1,2-a]pyrazine-7-carboxamide] |
| < 100 | Cc1cc(C(=O)N2CCn3cc(C(=O)NO)cc3C2)c(C)n1Cc1cccs1 [Compound I-35, 2-{[2,5-dimethyl-1-(2-thienylmethyl)-1H-pyrrol-3-yl]carbonyl}-N-hydroxy-1,2,3,4-tetrahydropyrrolo[1,2-a]pyrazine-7-carboxamide] |
| < 100 | O=C(NO)c1cc2n(c1)CCN(Cc1ccccc1)C2=O [Compound I-42, 2-benzyl-N-hydroxy-1-oxo-1,2,3,4-tetrahydropyrrolo[1,2-a]pyrazine-7-carboxamide] |
| < 100 | O=C(NO)c1cn2c(n1)CN(C(=O)c1cc3ccccc3s1)CC2 [Compound I-44, 7-(1-benzothien-2-ylcarbonyl)-N-hydroxy-5,6,7,8-tetrahydroimidazo[1,2-a]pyrazine-2-carboxamide] |

Same assay, conditions: bins: greater than 1 μM and less than 10 μM; greater than 10 μM

| Compound | IC50 [nM] |
| --- | --- |
| O=C(NO)c1cc2n(c1)CCN(C(=O)c1cn3ccccc3n1)C2 [Compound I-3, N-hydroxy-2-(imidazo[1,2-a]pyridin-2-ylcarbonyl)-1,2,3,4-tetrahydropyrrolo[1,2-a]pyrazine-7-carboxamide] | 1000 to 10000 |
| Cc1cc(C(=O)N2CCCn3cc(C(=O)NO)cc3C2)c(C)o1 [Compound I-4, 2-(2,5-dimethyl-3-furoyl)-N-hydroxy-2,3,4,5-tetrahydro-1H-pyrrolo[1,2-a][1,4]diazepine-8-carboxamide] | > 10000 |
| Cn1c(C(=O)N2CCCn3cc(C(=O)NO)cc3C2)cc2oc(-c3ccc(C(F)(F)F)cc3)cc21 [Compound I-5, N-hydroxy-2-({4-methyl-2-[4-(trifluoromethyl)phenyl]-4H-furo[3,2-b]pyrrol-5-yl}carbonyl)-2,3,4,5-tetrahydro-1H-pyrrolo[1,2-a][1,4]diazepine-8-carboxamide] | 1000 to 10000 |
| CC1(C(=O)N2CCn3nc(C(=O)NO)cc3C2)CCCCC1 [Compound I-6, N-hydroxy-5-[(1-methylcyclohexyl)carbonyl]-4,5,6,7-tetrahydropyrazolo[1,5-a]pyrazine-2-carboxamide] | 1000 to 10000 |
| Cc1c(C(=O)N2CCCn3cc(C(=O)NO)cc3C2)cnn1-c1ccccc1 [Compound I-7, N-hydroxy-2-[(5-methyl-1-phenyl-1H-pyrazol-4-yl)carbonyl]-2,3,4,5-tetrahydro-1H-pyrrolo[1,2-a][1,4]diazepine-8-carboxamide] | 1000 to 10000 |
| O=C(NO)c1cc2n(n1)CCN(C(=O)C1(C(F)(F)F)CC1)C2 [Compound I-8, N-hydroxy-5-{[1-(trifluoromethyl)cyclopropyl]carbonyl}-4,5,6,7-tetrahydropyrazolo[1,5-a]pyrazine-2-carboxamide] | 1000 to 10000 |
| CC(=O)c1c(C)[nH]c(C(=O)N2CCn3cc(C(=O)NO)cc3C2)c1C [Compound I-15, 2-[(4-acetyl-3,5-dimethyl-1H-pyrrol-2-yl)carbonyl]-N-hydroxy-1,2,3,4-tetrahydropyrrolo[1,2-a]pyrazine-7-carboxamide] | 1000 to 10000 |
| O=C(NO)c1cc2n(n1)CCN(C(=O)C13CC4CC(CC(C4)C1)C3)C2 [Compound I-16, 5-(1-adamantylcarbonyl)-N-hydroxy-4,5,6,7-tetrahydropyrazolo[1,5-a]pyrazine-2-carboxamide] | 1000 to 10000 |
| CC(C)(C)c1ccc(C(=O)N2CCCn3cc(C(=O)NO)cc3C2)cc1 [Compound I-18, 2-(4-tert-butylbenzoyl)-N-hydroxy-2,3,4,5-tetrahydro-1H-pyrrolo[1,2-a][1,4]diazepine-8-carboxamide] | 1000 to 10000 |
| O=C(NO)c1cc2n(c1)CCCN(C(=O)C1CCCC1)C2 [Compound I-19, 2-(cyclopentylcarbonyl)-N-hydroxy-2,3,4,5-tetrahydro-1H-pyrrolo[1,2-a][1,4]diazepine-8-carboxamide] | > 10000 |
| CC1(C(=O)N2CCn3cc(C(=O)NO)nc3C2)CCCCC1 [Compound I-26, N-hydroxy-7-(1-methylcyclohexanecarbonyl)-5,6,7,8-tetrahydroimidazo[1,2-a]pyrazine-2-carboxamide] | 1000 to 10000 |
| O=C(NO)c1cn2c(n1)CN(C(=O)C13CC4CC(CC(C4)C1)C3)CC2 [Compound I-27, 7-[1-adamantylcarbonyl]-N-hydroxy-5,6,7,8-tetrahydroimidazo[1,2-a]pyrazine-2-carboxamide] | 1000 to 10000 |

More lines, now with the values ahead:

| IC50 [nM] | Compound |
| --- | --- |
| 1000 to 10000 | O=C(NO)c1cc2n(c1)CCCN(C(=O)C1(c3ccc(Cl)cc3)CC1)C2 [Compound I-34, 2-{[1-(4-chlorophenyl)cyclopropyl]carbonyl}-N-hydroxy-2,3,4,5-tetrahydro-1H-pyrrolo[1,2-a][1,4]diazepine-8-carboxamide] |
| > 10000 | CC(C)(C)C(=O)N1CCn2nc(C(=O)NO)cc2C1 [Compound I-36, 5-(2,2-dimethylpropanoyl)-N-hydroxy-4,5,6,7-tetrahydropyrazolo[1,5-a]pyrazine-2-carboxamide] |
| 1000 to 10000 | CC(C)(C(=O)N1CCn2nc(C(=O)NO)cc2C1)c1ccc(Cl)cc1 [Compound I-37, 5-[2-(4-chlorophenyl)-2-methylpropanoyl]-N-hydroxy-4,5,6,7-tetrahydropyrazolo[1,5-a]pyrazine-2-carboxamide] |
| 1000 to 10000 | O=C(NO)c1cc2n(c1)CCCN(C(=O)C13CC4CC(CC(C4)C1)C3)C2 [Compound I-38, 2-[1-adamantylcarbonyl]-N-hydroxy-2,3,4,5-tetrahydro-1H-pyrrolo[1,2-a][1,4]diazepine-8-carboxamide] |
| 1000 to 10000 | CC(C)(C)C(=O)N1CCn2cc(C(=O)NO)nc2C1 [Compound I-41, 7-(2,2-dimethylpropanoyl)-N-hydroxy-5,6,7,8-tetrahydroimidazo[1,2-a]pyrazine-2-carboxamide] |
